# Reference: PMC6220303 (EMBO Molecular Medicine, 2018)
# “And” between values parts separate entries of the source, which are not always exact repeats. Equal entries are not always repeated. Where two headings read alike, the source gives them in different places.
# What was measured:
# C57/BL6 mice = test: Hair depigmentation study, 8 weeks dosing; format: in vivo, mouse
# Description: Compounds were either mixed in feed or given as a suspension orally. […] Vehicle or compounds were given orally in a volume of 10 ml/kg once daily (mornings) for 8 weeks. Vehicle: 0.1% Tween‐80 in 0.5% methylcellulose in water. […] The vehicle group was treated with food pellets containing no compound. The β1 antibody was dosed 0.5 mg/kg body weight, once weekly intraperitoneally, diluted in 90 nM NaCl, 50 nM Tris pH 7.1.
# [1] = system: Aβ40 in APOE4‐TR mouse forebrain; test: Forebrain Aβ40 in APOE4-TR mice; format: in vivo; details: highest dose of 17 mg/kg (30 μmol/kg), 4 h after dosing
# Description: Data were analyzed with one way ANOVA and Dunnett's multiple comparison test. • B Distribution of APOE4 genotypes in the Phase IIa study versus their baseline Aβ42/40 ratios. The dashed line at Aβ42/40 ratio of 0.09 represents a cutoff, which separates a normal ratio from an abnormally low ratio. • C Comparison of CSF Aβ40 reduction in APOE4 non‐carriers and APOE4 carriers (mean ± SD). • D Comparison of CSFAβ40 reduction in participants with Aβ42/40 ≥ 0.09 and Aβ42/40 < 0.09 (mean ± SD). • E Comparison of Aβ42/40 ratio at baseline and at day 91 for all participants in the placebo, 35 mg, and 85‐mg dose group (mean ± SD, n = 25/group). • F Change of Aβ42/40 ratio for all participants with Aβ42/40 ≤ 0.09 at baseline; bars represent mean ± SD. […] Data were analyzed with one way ANOVA and Dunnett's multiple comparison test. […]
# Electrochemiluminescence immunoassays (Mesoscale Diagnostics, Rockville, MD, USA) were used to determine Aβ38, Aβ40, Aβ42, sAPPα, and sAPPβ. For studies in normal mice and rats, the endogenous Aβ40 was extracted from the brain homogenate with 1% Triton X‐100, and the 4G8‐based assay kit was used for quantification according to the manufacturer's instructions. CSF was collected from the cisterna magna and also analyzed using the 4G8 kit. […] For studies in APP23 mice, Aβ40 and Aβ42 were determined after extraction with 70% formic acid and subsequent neutralization.
# clinical = format: in vivo, human; details: for CSF Cmax: ≥ 60 years
# Description: The lower limit of quantification (LLOQ) was 1 ng/ml in plasma and 2 ng/ml in urine and CSF, except for the 3‐month study where the method for CSF was more sensitive (LLOQ 0.1 ng/ml). Plasma PK parameters were calculated using actual recorded sampling times and non‐compartmental methods with Phoenix WinNonlin version 6.4 (Certara, Inc., Princeton, NJ, USA). […]
# healthy participants = test: Safety and tolerability in early clinical studies; format: in vivo, human; details: for dose up to which no dose-limiting safety or tolerability findings were observed: participants ≥ 60 years
# Description: Only the single ascending dose studies were performed in adults 18–55 or 20–45 years of age, whereas the participants in all subsequent single and multiple dose studies were cognitively normal male and post‐menopausal female subjects ≥ 60 years of age, similar to the age range of our target population in the Generation Program.
# For further details, see the Appendix Table S10 in Appendix and the accompanying clinical protocols synopsis (Appendix Table S11).
# [2] = biological target: Monoamine transporter VMAT2 (Oryctolagus cuniculus, UniProt G1T2K3); test: Receptor panel binding; design: species or system Rabbit; details: read-out: Inhibition at 10 µM
# Monoamine transporter VMAT2, sequence (G1T2K3 1-509): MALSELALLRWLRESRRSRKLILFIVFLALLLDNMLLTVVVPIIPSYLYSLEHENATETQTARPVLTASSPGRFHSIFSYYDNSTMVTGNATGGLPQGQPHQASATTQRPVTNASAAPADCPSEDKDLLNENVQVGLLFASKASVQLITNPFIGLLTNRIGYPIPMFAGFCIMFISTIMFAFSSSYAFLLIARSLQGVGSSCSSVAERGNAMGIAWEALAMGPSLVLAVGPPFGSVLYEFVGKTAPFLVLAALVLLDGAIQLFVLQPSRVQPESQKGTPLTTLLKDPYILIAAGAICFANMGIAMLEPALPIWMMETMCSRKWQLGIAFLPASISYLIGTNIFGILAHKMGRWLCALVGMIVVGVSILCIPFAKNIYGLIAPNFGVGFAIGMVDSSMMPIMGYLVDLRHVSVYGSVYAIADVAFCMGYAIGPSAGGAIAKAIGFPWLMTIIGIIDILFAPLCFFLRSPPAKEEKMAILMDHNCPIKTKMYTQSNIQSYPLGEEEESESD
# Description: Cellular Aβ release assays were done in CHO cells stably transfected with human wild‐type and human APP were done as described (Neumann et al, 2015). Determinations of logD, pKa, and binding to brain homogenates were done internally at Novartis, Basel. Plasma protein binding was determined by equilibrium dialysis using diluted plasma from the corresponding species. MDR‐1‐MDCK cells were obtained from Prof. A. Berns, Netherlands Cancer Institute, Amsterdam NL, and bi‐directional transport measurements were done as described (Rueeger et al, 2011). Receptor binding assays were done against an internal receptor panel and externally at Ricerca Biosciences, Peitou, Taiwan. In vitro binding and cellular patch clamp assays for hERG were done at Preclinical Safety, Novartis, Basel.
smiles,measurement,setting,value
C[C@@]1(c2nc(NC(=O)c3ncc(C(F)(F)F)cc3Cl)ccc2F)CO[C@@](C)(C(F)(F)F)C(N)=N1 [CNP520],"changes in other pigmented organs (hair follicle, choroid, retina pigmented epithelium) by histopathology","C57/BL6 mice; C57/BL6 mice, 8 weeks",Neither did we observe any changes in other pigmented organs
same,Aβ40 reduction in the brain,C57/BL6 mice; at doses with no change in hair color,more than 90%
same,hair depigmentation / change in hair color,"C57/BL6 mice; male C57/BL6 mice, 8 weeks oral once daily",No change in hair color
same,reduction in Aβ40,[1],77%
same,CSF conc 24h after dose Day 14,"clinical; 10 mg q.d., 2 weeks, LLOQ 2 ng/ml in CSF",< LLOQ
same,concentration at 24 h,"clinical; both sexes, human, CSF, oral, 2 mg q.d., 3 month study, mean (CV %), read-out: CSF conc 24h after dose Day 91",0.305 ng/mL
same,concentration at 24 h,"clinical; both sexes, human, CSF, oral, 10 mg q.d., 3 month study, mean (CV %), read-out: CSF conc 24h after dose Day 91",1.44 ng/mL
same,concentration at 24 h,"clinical; both sexes, human, CSF, oral, 30 mg q.d., 2 weeks, mean (CV %), read-out: CSF conc 24h after dose Day 14",3.33 ng/mL
same,concentration at 24 h,"clinical; both sexes, human, CSF, oral, 35 mg q.d., 3 month study, mean (CV %), read-out: CSF conc 24h after dose Day 91",4.52 ng/mL
same,concentration at 24 h,"clinical; both sexes, human, CSF, oral, 85 mg q.d., 3 month study, mean (CV %), read-out: CSF conc 24h after dose Day 91",10.4 ng/mL
same,concentration at 24 h,"clinical; both sexes, human, CSF, oral, 90 mg q.d., 2 weeks, mean (CV %), read-out: CSF conc 24h after dose Day 14",9.48 ng/mL
same,concentration at 24 h,"clinical; both sexes, human, CSF, oral, 300 mg q.d., 2 weeks, mean (CV %), read-out: CSF conc 24h after dose Day 14",29.8 ng/mL
same,Cmax,"clinical; both sexes, human, CSF, oral, single dose of 750 mg, read-out: CSF mean C max",39.7 nM
same,CSF Cmax,"clinical; single dose 10 mg, LLOQ 2 ng/ml in CSF",< LLOQ
same,CSF Cmax,"clinical; single dose 90 mg, mean (CV %)",3.33 ( 65.2 ) ng/ml
same,CSF Cmax,"clinical; single dose 300 mg, mean (CV %)",10.5 (49.1) ng/ml
same,CSF Cmax,"clinical; single dose 750 mg, mean (CV %)",20.4 (44.8) ng/ml and 20.4 ng/ml
same,"skin-related AEs, mostly driven by pruritus","healthy participants; 3-month study, 4% for placebo",18%
same,abuse potential,healthy participants; clinical studies,no signal for abuse potential
same,dose up to which no dose-limiting safety or tolerability findings were observed,healthy participants; for 2 weeks (maximum multiple dose tested),≤ 300 mg
same,dose up to which no dose-limiting safety or tolerability findings were observed,healthy participants; for 3 months,up to 85 mg
same,dose up to which no dose-limiting safety or tolerability findings were observed,healthy participants; single dose,up to 750 mg
same,inhibition at 10 µM,[2],79%
